Converted amounts (≈) assume the structure as drawn. Like-named read-outs stand apart in the source and are kept apart here. *1 amine or outer side, *2 acyl side, *3 side chain or, on linkers, in order; H or OH if unused. Where a SMILES comes first, the peptide text is derived from it. Bridges are numbered along the chain shown (N, C = ends). [ ]: non-standard residue; d: D form. The star is where a group is joined. ξ: configuration not given here. NH(1,3-benzodioxol-5-yl) = c1cc2c(cc1N*)OCO2; Phe(3,5-F2) = N[C@@H](Cc1cc(F)cc(F)c1)C(=O)O; NH(4-OCF3-phenyl) = FC(F)(F)Oc1ccc(N*)cc1; Pro(4S-Me) = C[C@@H]1CN[C@H](C(=O)O)C1; Pro(4R-Me) = C[C@H]1CN[C@H](C(=O)O)C1; ξPro(4S-Me) = C[C@@H]1CNC(C(=O)O)C1; ξPro(4R-Me) = C[C@H]1CNC(C(=O)O)C1; Hyp = O=C(O)[C@@H]1C[C@@H](O)CN1; NMeT = CN[C@H](C(=O)O)[C@@H](C)O; NH(4-Me-phenyl) = Cc1ccc(N*)cc1; aThr = C[C@H](O)[C@H](N)C(=O)O; X5 = O=C(C1COCCN1[*:1])[*:2]; Pip = O=C(O)[C@@H]1CCCCN1; NMeA = CN[C@@H](C)C(=O)O; CO = O=C([*:1])[*:2]; ξP = O=C(O)C1CCCN1
How the values were obtained:
Type in all cases: cell-based
[1] = tested on: Streptococcus pyogenes, ATCC 700294; assay: Minimal inhibitory concentration assay (microbroth dilution)
Method: (§1) It is understood, that in various aspects, the MIC is determined by a microbroth dilution method. In a further aspect, the MIC is determined by a microbroth dilution method using Staphylococcus aureus, ATCC 29213. In a still further aspect, the MIC is determined by a microbroth dilution method using Staphylococcus aureus, NRS70. In a yet further aspect, the MIC is determined by a microbroth dilution method using Streptococcus pyogenes, ATCC 700294. In an even further aspect, the MIC is determined by a microbroth dilution method using Streptococcus pneumoniae, DAW27. In a still further aspect, the MIC is determined by a microbroth dilution method using Bacillus subtilis, ATCC 23857. In a yet further aspect, the MIC is determined by a microbroth dilution method using Enterococcus faecalis, ATCC 33186. In an even further aspect, the MIC is determined using Staphylococcus aureus, USA 300. In a still further aspect, the MIC is determined using Streptococcus pneumoniae, R6. In a further aspect, the MIC is determined using Staphylococcus aureus, USA 300 and compared to the MIC determined using Staphylococcus aureus, USA 300 wherein ClpP is inactivated, thus allowing confirmation that killing is via a ClpP-dependent pathway.
Minimal inhibitory concentrations (“MICs”) were determined using the microbroth dilution method according to Clinical Laboratory Standards Institute (CLSI; National, C.F. C. L. S., Methods for Dilution Antimicrobial Susceptibility Tests for Bacteria Grow aerobically-Seventh Edition: Approved Standard M7-A7, CLSI, Wayne, Pa., USA, 2008) and were read by visual inspection. Two fold serial dilutions of test compound in 100 μL of the appropriate broth media were first prepared in 96-well round bottom microtiter plates (Nalgene Nunc International, Rochester, N.Y., USA). […] The plates were then incubated aerobically at 37° C. All strains were incubated overnight. After incubations, in all cases the MIC was recorded as the lowest concentration of drug that prevented bacterial growth. The bacterial strains for which MIC was determined as described in Table 4.

[2] = tested on: Streptococcus pneumoniae, R6; assay: Minimal inhibitory concentration assay; conditions: read-out: Minimal Inhibitory Concentrations S. pneumoniae R6
Method: It is understood, that in various aspects, the MIC is determined by a microbroth dilution method. […] In a still further aspect, the MIC is determined by a microbroth dilution method using Staphylococcus aureus, NRS70. […] In an even further aspect, the MIC is determined by a microbroth dilution method using Streptococcus pneumoniae, DAW27. […] In an even further aspect, the MIC is determined using Staphylococcus aureus, USA 300. In a still further aspect, the MIC is determined using Streptococcus pneumoniae, R6. In a further aspect, the MIC is determined using Staphylococcus aureus, USA 300 and compared to the MIC determined using Staphylococcus aureus, USA 300 wherein ClpP is inactivated, thus allowing confirmation that killing is via a ClpP-dependent pathway.
Two fold serial dilutions of test compound in 100 μL of the appropriate broth media were first prepared in 96-well round bottom microtiter plates (Nalgene Nunc International, Rochester, N.Y., USA). […] The plates were then incubated aerobically at 37° C. All strains were incubated overnight. After incubations, in all cases the MIC was recorded as the lowest concentration of drug that prevented bacterial growth. The bacterial strains for which MIC was determined as described in Table 4.

[3] = tested on: Staphylococcus aureus, NRS70; assay: Minimal inhibitory concentration assay (microbroth dilution)
Method: as §1
(§2) Minimal inhibitory concentrations (“MICs”) were determined using the microbroth dilution method according to Clinical Laboratory Standards Institute (CLSI; National, C.F. C. L. S., Methods for Dilution Antimicrobial Susceptibility Tests for Bacteria Grow aerobically-Seventh Edition: Approved Standard M7-A7, CLSI, Wayne, Pa., USA, 2008) and were read by visual inspection. Two fold serial dilutions of test compound in 100 μL of the appropriate broth media were first prepared in 96-well round bottom microtiter plates (Nalgene Nunc International, Rochester, N.Y., USA). An equivalent volume (100 μL) of bacterial broth inocula containing approximately 10^5 bacterial cfu/mL was added to each well to give final concentrations of test compound starting at 200 μM. The plates were then incubated aerobically at 37° C. All strains were incubated overnight. After incubations, in all cases the MIC was recorded as the lowest concentration of drug that prevented bacterial growth. The bacterial strains for which MIC was determined as described in Table 4.

[4] = tested on: Staphylococcus aureus, ATCC 29213; assay: as above; conditions: ATCC29213, read-out: Minimal Inhibitory Concentrations S. aureus ATCC 29213
Method: as §1, §2

[5] = tested on: Bacillus subtilis, ATCC 23857; assay: as above
Method: as §1, §2

[6] = tested on: Staphylococcus aureus, USA 300; assay: Minimal inhibitory concentration assay; conditions: USA300, read-out: Minimal Inhibitory Concentrations S. aureus USA 300
Method: as §1, §2

[7] = tested on: Staphylococcus aureus, USA 300 wherein ClpP is inactivated; assay: Minimal inhibitory concentration assay
Method: as §1, §2

[8] = tested on: Enterococcus faecalis, ATCC 33186; assay: Minimal inhibitory concentration assay (microbroth dilution); conditions: Enterococcus faecalis, ATCC33186; read-out: Minimal Inhibitory Concentrations E. faecalis ATCC 33186
Method: as §1, §2

[9] = Streptococcus pyogenes, ATCC700294; read-out: Minimal Inhibitory Concentrations S. pyogenes ATCC 700294
[10] = Staphylococcus aureus, NRS70; read-out: Minimal Inhibitory Concentrations S. aureus NRS70
[11] = Bacillus subtilis, ATCC23857; read-out: Minimal Inhibitory Concentrations B. subtilis ATCC 23857
[12] = Streptococcus pyogenes, ATCC700294, read-out: Minimal Inhibitory Concentrations S. pyogenes ATCC 700294
[13] = Staphylococcus aureus, NRS70, read-out: Minimal Inhibitory Concentrations S. aureus NRS70
[14] = Bacillus subtilis, ATCC23857, read-out: Minimal Inhibitory Concentrations B. subtilis ATCC 23857

Row | Compound | MIC [1, 9] | MIC [2] | MIC [3, 10] | MIC [4] | MIC [5, 11] | MIC [6] | MIC [1, 12] | MIC [3, 13] | MIC [5, 14] | Minimal Inhibitory Concentrations S. aureus USA 300 ΔClpP [7] | MIC [8]
1 | C[C@H]1CC2C(=O)O[C@@H](C)[C@H](NC(=O)[C@H](Cc3cc(F)cc(F)c3)NC(=O)Nc3ccc(OC(F)(F)F)cc3)C(=O)N3CCCC3C(=O)N(C)[C@@H](C)C(=O)N[C@@H](C)C(=O)N2C1 (stereo partly drawn) [Compound 28, (2S)-3-(3,5-difluorophenyl)-N-((2S,6S,9S,11aS,17S,18S)-2,6,9,10,18-pentamethyl-5,8,11,16,20-pentaoxohexadecahydro-1H,5H,16H-dipyrrolo[2,1-c:2′,1′-l][1]oxa[4,7,10,13]tetraazacyclohexadecin-17-yl)-2-(3-(4-(trifluoromethoxy)phenyl)ureido)propanamide] ({NH(4-OCF3-phenyl)-CO}-[Phe(3,5-F2)][aThr][ξP][NMeA]A[ξPro(4S-Me)]; ester 2-C) | 0.23 µM (≈ 0.196 µg/mL) | 0.029 µM (≈ 0.0247 µg/mL) | 0.05 µM (≈ 0.0426 µg/mL) | 0.05 µM (≈ 0.0426 µg/mL) | 0.01 µM (≈ 0.00852 µg/mL) | 0.1 µM (≈ 0.0852 µg/mL) |  |  |  |  | 
2 | Cc1ccc(NC(=O)N[C@@H](Cc2cc(F)cc(F)c2)C(=O)N[C@@H]2C(=O)N3CCCC3C(=O)N3CCOCC3C(=O)N[C@@H](C)C(=O)N3C[C@H](C)CC3C(=O)O[C@H]2C)cc1 (stereo partly drawn) [Compound 47, (S)-3-(3,5-difluorophenyl)-2-(3-(p-tolyl)ureido)-N-((6aS,12S,13S,15aS,17R,21S,23aS)-13,17,21-trimethyl-6,11,15,20,23-pentaoxooctadecahydro-6H,11H,15H-[1,4]oxazino[3,4-i]dipyrrolo[2,1-c:2′,1′-l][1]oxa[4,7,10,13]tetraazacyclohexadecin-12-yl)propanamide] ({NH(4-Me-phenyl)-CO}-[Phe(3,5-F2)][aThr][ξP][X5]A[ξPro(4R-Me)]; ester 2-C) |  | 0.002 µM (≈ 0.00162 µg/mL) |  | 0.003 µM (≈ 0.00243 µg/mL) |  | 0.01 µM (≈ 0.0081 µg/mL) | 0.02 µM (≈ 0.0162 µg/mL) | 0.0002 µM (≈ 0.000162 µg/mL) | 0.8 µM (≈ 0.648 µg/mL) | >200 µM | 
3 | C[C@@H]1C[C@H]2C(=O)O[C@@H](C)[C@H](NC(=O)[C@H](Cc3cc(F)cc(F)c3)NC(=O)Nc3ccc4c(c3)OCO4)C(=O)N3CCC[C@H]3C(=O)N(C)[C@@H]([C@@H](C)O)C(=O)N[C@@H](C)C(=O)N2C1 [Compound 197, (S)-2-(3-(benzo[d][1,3]dioxol-5-yl)ureido)-3-(3,5-difluorophenyl)-N-((2R,6S,9S,11aS,17S,18S,20aS)-9-((R)-1-hydroxyethyl)-2,6,10,18-tetramethyl-5,8,11,16,20-pentaoxohexadecahydro-1H,5H,16H-dipyrrolo[2,1-c:2′,1′-l][1]oxa[4,7,10,13]tetraazacyclohexadecin-17-yl)propanamide] ({NH(1,3-benzodioxol-5-yl)-CO}-[Phe(3,5-F2)][aThr]P[NMeT]A[Pro(4R-Me)]; ester 2-C) | 0.039 µM (≈ 0.0328 µg/mL) | < 0.02 µM | 0.039 µM (≈ 0.0328 µg/mL) | 0.039 µM (≈ 0.0328 µg/mL) | < 0.02 µM | 0.078 µM (≈ 0.0657 µg/mL) |  |  |  | >20 µM | 
4 | C[C@@H]1NC(=O)[C@@H]2CCCCN2C(=O)[C@@H]2CCCN2C(=O)[C@@H](NC(=O)[C@H](Cc2cc(F)cc(F)c2)NC(=O)Nc2ccc3c(c2)OCO3)[C@H](C)OC(=O)[C@@H]2CCCN2C1=O [Compound 17, (S)-2-(3-(benzo[d][1,3]dioxol-5-yl)ureido)-3-(3,5-difluorophenyl)-N-((6S,8aS,14aS,20S,21S,23aS)-6,21-dimethyl-5,8,14,19,23-pentaoxooctadecahydro-1H,5H,14H,19H-pyrido[2,1-i]dipyrrolo[2,1-c:2′,1′-l][1]oxa[4,7,10,13]tetraazacyclohexadecin-20-yl)propanamide] ({NH(1,3-benzodioxol-5-yl)-CO}-[Phe(3,5-F2)][aThr]P[Pip]AP; ester 2-C) | 1.5 µM (≈ 1.24 µg/mL) |  | 3.1 µM (≈ 2.55 µg/mL) | 3.1 µM (≈ 2.55 µg/mL) | 0.4 µM (≈ 0.33 µg/mL) | 3.1 µM (≈ 2.55 µg/mL) |  |  |  | 200 µM | < 0.1 µM
5 | Cc1ccc(NC(=O)N[C@@H](Cc2cc(F)cc(F)c2)C(=O)N[C@H]2COC(=O)C3C[C@H](C)CN3C(=O)[C@H](C)NC(=O)C3CCCCN3C(=O)C3CCCN3C2=O)cc1C (stereo partly drawn) [Compound 48, (S)-3-(3,5-difluorophenyl)-N-((2S,6S,8aS,14aS,20S,23aS)-2,6-dimethyl-5,8,14,19,23-pentaoxooctadecahydro-1H,5H,14H,19H-pyrido[2,1-i]dipyrrolo[2,1-c:2′,1′-l][1]oxa[4,7,10,13]tetraazacyclohexadecin-20-yl)-2-(3-(3,4-dimethylphenyl)ureido)propanamide] |  | 0.8 µM (≈ 0.646 µg/mL) |  | 1.6 µM (≈ 1.29 µg/mL) |  | 1.6 µM (≈ 1.29 µg/mL) | 3.1 µM (≈ 2.5 µg/mL) | 0.4 µM (≈ 0.323 µg/mL) | 0.2 µM (≈ 0.162 µg/mL) | 200 µM | 
6 | Cc1ccc(NC(=O)N[C@@H](Cc2cc(F)cc(F)c2)C(=O)N[C@@H]2C(=O)N3C[C@H](O)C[C@H]3C(=O)N3CCCC[C@H]3C(=O)N[C@@H](C)C(=O)N3C[C@H](C)C[C@H]3C(=O)O[C@H]2C)cc1 [Compound 216, (S)-3-(3,5-difluorophenyl)-N-((2R,6S,8aS,14aS,16R,20S,21S,23aS)-16-hydroxy-2,6,21-trimethyl-5,8,14,19,23-pentaoxooctadecahydro-1H,5H,14H,19H-pyrido[2,1-i]dipyrrolo[2,1-c:2′,1′-l][1]oxa[4,7,10,13]tetraazacyclohexadecin-20-yl)-2-(3-(p-tolyl)ureido)propanamide] ({NH(4-Me-phenyl)-CO}-[Phe(3,5-F2)][aThr][Hyp][Pip]A[Pro(4R-Me)]; ester 2-C) |  | 0.001 µM (≈ 0.000824 µg/mL) |  |  |  | 0.1 µM (≈ 0.0824 µg/mL) | 0.2 µM (≈ 0.165 µg/mL) | 0.2 µM (≈ 0.165 µg/mL) | 0.2 µM (≈ 0.165 µg/mL) |  | 
7 | C[C@H]1C[C@H]2C(=O)O[C@@H](C)[C@H](NC(=O)[C@H](Cc3cc(F)cc(F)c3)NC(=O)Nc3ccc4c(c3)OCO4)C(=O)N3CCC[C@H]3C(=O)N3CCCC[C@H]3C(=O)N[C@@H](C)C(=O)N2C1 [Compound 20, (S)-2-(3-(benzo[d][1,3]dioxol-5-yl)ureido)-3-(3,5-difluorophenyl)-N-((2R,6S,8aS,14aS,20S,21S,23aS)-2,6,21-trimethyl-5,8,14,19,23-pentaoxooctadecahydro-1H,5H,14H,19H-pyrido[2,1-i]dipyrrolo[2,1-c:2′,1′-l][1]oxa[4,7,10,13]tetraazacyclohexadecin-20-yl)propanamide] ({NH(1,3-benzodioxol-5-yl)-CO}-[Phe(3,5-F2)][aThr]P[Pip]A[Pro(4S-Me)]; ester 2-C) | 0.4 µM (≈ 0.335 µg/mL) |  | 0.4 µM (≈ 0.335 µg/mL) | 0.8 µM (≈ 0.67 µg/mL) | < 0.1 µM | 0.8 µM (≈ 0.67 µg/mL) |  |  |  | 200 µM | < 0.1 µM
